Experimental findings from US8962598B2, “1,2-dihydro-4-hydroxy-2-oxo-quinoline-3-carboxanilides as AHR activators” (Immunahr AB, priority 2010, dated 2015) are described below.

Series [1] has as its system EAE in female Dark Agouti (DA) rats. The series can be described thus: Experimental autoimmune encephalomyelitis (EAE) MS model in rats. The format is in vivo, rat. As to conditions: FIG. 1. The procedure: EAE was induced day 0 in female Dark Agouti (DA) rats with subcutaneous injection of spinal cord homogenate (SCH, approximately 2 mg, from naive rats) emulsified in incomplete Freunds adjuvant (IFA, total volume 100 ul per rat) at the base of the tail. Disease was evaluated daily from day 5 until the end of the experiment (day 22) according to following criteria: 0=healthy, 1=tail weakness, 2=tail paralysis, 3=tail paralysis and mild waddle, 4=tail paralysis and severe waddle, 5=tail paralysis and paralysis of one limb, 6=tail paralysis and paralysis of both hind limbs, 7=tetraparesis or paralysis of three limbs, and 8=premorbid or dead. Statistical analysis was performed using Prism 5 for Mac OS X (GraphPad Software, San Diego, Calif., USA).
Treatment was initiated day 0 after EAE induction with following treatment injections administered day 3, 6, and 9. The dose was administered as a 500 uL corn oil solution subcutaneously at the lower back. Treatment groups were mixed in all cages to avoid cage effects.
Control (vehicle, corn oil, Sigma Aldrich), 11 animals
Cyclosporin A (positive control, Sigma Aldrich), 10 mg/kg, first dissolved in 70% EtOH to 50 mg/mL, 11 animals
Compound 9 (N-acetyl-N-phenyl-4-acetoxy-5-chloro-1,2-dihydro-1-methyl-2-oxo-quinoline-3-carboxamide, Example 74), 1 mg/kg, 10 animals

Series [2] in a line: Solubility measurements in 0.2 M phosphate buffer pH 7.4. The format is physicochemical. The conditions noted are these: 0.2 M phosphate buffer pH 7.4, ambient temperature, results from two dilutions; for Solubility: 24 h; for solubility at 24 h: phosphate buffer, pH 7.4, aqueous buffer, thermodynamic from solid. On the procedure: Solubilities of a di- and a mono-acylated compound were measured in 0.2 M phosphate buffer pH 7.4 and compared with the solubility of the corresponding non-acylated compound.
Saturated compound solutions were prepared by mixing the compounds and the buffer solution at ambient temperature for 24 h followed by separation of the aqueous solution by centrifugation. Standard solutions of compounds (1.00 mg/mL) were prepared in DMSO.
The compound concentrations were measured by HPLC-MS/UV (Waters Alliance 2790 Separations Module/996 PDA detector/Micromass Quattro Micro) after appropriate dilutions of the aqueous saturated solutions ( 1/10 and 1/100) and the standard solutions ( 1/100, 1/200, and 1/1000), respectively, with mobile phase solvent.

The target in series [3] is T1, human AhR (Homo sapiens, UniProt P35869).
T1 construct: host or cells: GeneBLAzer CYP1A1-bla LS-180 cell line
T1 sequence (P35869 11-848): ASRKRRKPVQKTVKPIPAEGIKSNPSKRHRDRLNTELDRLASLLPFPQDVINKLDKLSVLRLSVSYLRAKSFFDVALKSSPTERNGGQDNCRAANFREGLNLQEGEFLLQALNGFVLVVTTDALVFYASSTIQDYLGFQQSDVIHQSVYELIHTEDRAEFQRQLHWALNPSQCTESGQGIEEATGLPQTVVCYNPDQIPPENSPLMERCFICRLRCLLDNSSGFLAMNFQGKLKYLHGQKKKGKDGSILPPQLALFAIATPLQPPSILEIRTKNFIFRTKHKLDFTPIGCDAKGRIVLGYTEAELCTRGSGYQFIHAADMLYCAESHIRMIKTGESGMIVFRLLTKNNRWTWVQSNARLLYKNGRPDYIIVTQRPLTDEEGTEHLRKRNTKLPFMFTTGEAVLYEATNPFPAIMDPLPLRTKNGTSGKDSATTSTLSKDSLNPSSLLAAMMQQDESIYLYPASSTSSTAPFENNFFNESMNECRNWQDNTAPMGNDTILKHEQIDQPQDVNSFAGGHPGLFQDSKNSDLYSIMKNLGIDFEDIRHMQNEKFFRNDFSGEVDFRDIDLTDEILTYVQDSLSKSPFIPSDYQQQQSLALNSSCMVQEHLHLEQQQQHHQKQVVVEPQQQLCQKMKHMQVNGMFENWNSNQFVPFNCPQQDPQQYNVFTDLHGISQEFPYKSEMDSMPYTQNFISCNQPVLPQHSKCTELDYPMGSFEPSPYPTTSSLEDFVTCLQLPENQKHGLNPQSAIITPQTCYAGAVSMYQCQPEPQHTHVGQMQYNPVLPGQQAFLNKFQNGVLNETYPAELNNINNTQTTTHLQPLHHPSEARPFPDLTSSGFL
The series can be described thus: Activation of human AhR, GeneBLAzer CYP1A1-bla LS-180 beta-lactamase reporter-gene assay. As to conditions: assay reference compound (control activator). The format is cell-based. On the procedure:
Activation of the aryl hydrocarbon receptor can be measured in cell-based reporter-gene assays, which consist of cell lines containing the aryl hydrocarbon recptor and transfected with a reporter gene regulated by activated Ahr via an XRE (xenobiotic response element). AhR activation will thus result in an enhanced expression of the reporter protein (e.g. luciferase) which functional activity can be measured.
Activation of human AhR was measured in the GeneBLAzer® CYP1A1-bla LS-180 cell line (Invitrogen Corporation, Madison, www.invitrogen.com/drugdiscovery) using a beta-lactamase reporter gene (bla) combined with a FRET-enabled substrate sensitive to bla expression.
CYP1A1-bla LS-180 cells are harvested and suspended in Assay Media (OPTI-MEM, 0.5% dialyzed FBS, 0.1 mM NEAA, 1 mM Sodium Pyruvate, 100 U/mL/100 μg/mL Pen/Strep) to a concentration of 625,000 cells/mL. 32 μL of cell suspension (20,000 cells) is added to each well of a 384-well Poly-D-Lysine assay plate. Cells in assay media are incubated for 16-24 hours in the plate at 37° C./5% CO2 in a humidified incubator. 4 μL of a 10× serial dilution of beta-naphthoflavone (control activator starting concentration, 100,000 nM) or compounds are added to appropriate wells. 4 μL of Assay Media is added to all wells to bring the final assay volume to 40 μL. […] The plate is read on a fluorescence plate reader. […]

Converted amounts (≈) assume the structure as drawn.

On to `CC(=O)Oc1c(C(=O)N(C(C)=O)c2ccccc2)c(=O)n(C)c2cccc(Cl)c12` [Compound 9, N-acetyl-N-phenyl-4-acetoxy-5-chloro-1,2-dihydro-1-methyl-2-oxo-quinoline-3-carboxamide], for which the “severity of the first disease period after discontinuation of treatment” value in series [1] (1 mg/kg s.c. day 0, 3, 6 and 9, versus vehicle control) is recorded as “lower than for vehicle control treated animals”. Also, the “EAE development (clinical score)” value in series [1] (1 mg/kg s.c. in corn oil day 0, 3, 6 and 9, DA rats) was “efficiently prevented EAE development”.

What is called Solubility is how much of the substance goes into solution per volume. By solubility is commonly meant the dissolved amount per volume that the medium holds. Low readings indicate little dissolved substance, high ones much dissolved substance. `CC(=O)Oc1c(C(=O)N(C(C)=O)c2ccccc2)c(=O)n(C)c2ccccc12` [Compound 1, N-acetyl-N-phenyl-4-acetoxy-1,2-dihydro-1-methyl-2-oxo-quinoline-3-carboxamide]: in series [2], the Solubility turned out to be 38 µg/mL (≈ 100 µM) and the solubility at 24 h came out at 21 µg/mL (≈ 55.5 µM).

In series [2], `CC(=O)Oc1c(C(=O)Nc2ccccc2)c(=O)n(C)c2ccccc12` [Compound 2, N-phenyl-4-acetoxy-1,2-dihydro-1-methyl-2-oxo-quinoline-3-carboxamide] showed a Solubility of 221 µg/mL (≈ 657 µM) and a solubility at 24 h of 186 µg/mL (≈ 553 µM). One may read the EC50 as the concentration at which the effect is half-maximal. High values mean weaker potency, low ones greater potency. In the case of `O=c1cc(-c2ccccc2)oc2ccc3ccccc3c12` [beta-naphthoflavone], the EC50 in series [3] was 2090 nM. Turning to `Cn1c(=O)c(C(=O)Nc2ccccc2)c(O)c2ccccc21` [Compound 3, N-phenyl-1,2-dihydro-4-hydroxy-1-methyl-2-oxo-quinoline-3-carboxamide, reference compound], the solubility at 24 h in series [2] was < 1 µg/mL.
